Experimental data reported in ChEMBL document CHEMBL4184305, “Inhibition of histone lysine methyltransferases G9a and GLP by ejection of structural Zn(II)” (Bioorg Med Chem Lett, 2018).
Calls of active or inactive are those of the source. The calls are words filed in the database; no cut-off is given here.

Assays:
[1] = biological target: T1, Histone-lysine N-methyltransferase EHMT2 (Homo sapiens) (UniProt Q96KQ7); assay: Inhibition of wild type recombinant human histone lysine methyltransferase G9a (913 to 1193 residues) expressed in Escherichia coli Rosetta BL21 DE3 PlysS assessed as zinc ions ejection from Cys4-Zn finger at >50 uM after 1 hr by circular dichroism analysis
T1 sequence (whole entry): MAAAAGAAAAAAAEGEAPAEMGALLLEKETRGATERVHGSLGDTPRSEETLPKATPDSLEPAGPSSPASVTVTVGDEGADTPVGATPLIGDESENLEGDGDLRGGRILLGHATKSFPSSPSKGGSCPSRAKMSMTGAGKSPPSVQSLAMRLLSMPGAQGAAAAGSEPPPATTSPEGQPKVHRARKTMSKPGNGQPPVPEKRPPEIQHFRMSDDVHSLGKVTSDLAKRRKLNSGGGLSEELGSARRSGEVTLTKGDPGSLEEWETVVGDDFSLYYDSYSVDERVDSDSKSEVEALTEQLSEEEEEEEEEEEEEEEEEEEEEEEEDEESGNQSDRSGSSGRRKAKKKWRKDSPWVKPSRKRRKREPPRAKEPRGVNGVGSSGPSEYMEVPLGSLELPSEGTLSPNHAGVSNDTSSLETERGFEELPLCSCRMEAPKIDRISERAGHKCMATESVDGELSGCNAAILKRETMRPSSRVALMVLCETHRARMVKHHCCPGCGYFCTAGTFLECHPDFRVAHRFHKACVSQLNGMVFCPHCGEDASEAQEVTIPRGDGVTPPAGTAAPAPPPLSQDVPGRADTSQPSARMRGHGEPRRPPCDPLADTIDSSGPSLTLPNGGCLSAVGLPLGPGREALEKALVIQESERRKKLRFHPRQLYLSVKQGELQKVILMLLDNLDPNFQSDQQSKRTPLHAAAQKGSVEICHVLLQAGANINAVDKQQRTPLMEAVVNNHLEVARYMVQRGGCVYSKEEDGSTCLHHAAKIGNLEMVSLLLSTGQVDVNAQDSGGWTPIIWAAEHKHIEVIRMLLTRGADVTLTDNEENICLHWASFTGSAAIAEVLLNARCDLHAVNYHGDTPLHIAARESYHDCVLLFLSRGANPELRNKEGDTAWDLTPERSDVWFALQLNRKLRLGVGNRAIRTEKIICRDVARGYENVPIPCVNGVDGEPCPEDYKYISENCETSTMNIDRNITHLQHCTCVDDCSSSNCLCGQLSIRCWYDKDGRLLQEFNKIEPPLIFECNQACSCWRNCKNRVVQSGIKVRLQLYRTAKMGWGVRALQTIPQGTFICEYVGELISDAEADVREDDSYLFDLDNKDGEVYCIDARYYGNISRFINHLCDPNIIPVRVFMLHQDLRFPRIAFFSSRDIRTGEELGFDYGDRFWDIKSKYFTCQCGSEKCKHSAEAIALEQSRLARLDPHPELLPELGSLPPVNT

[2] = biological target: T1, Histone-lysine N-methyltransferase EHMT2 (Homo sapiens); assay: Inhibition of wild type recombinant human histone lysine methyltransferase G9a (913 to 1193 residues) expressed in Escherichia coli Rosetta BL21 DE3 PlysS assessed as zinc ions ejection from Cys4-Zn finger at 2.5 to 100 uM after 500 to 3500 secs by FluoZin-3 based fluorescence assay
[3] = biological target: T1, Histone-lysine N-methyltransferase EHMT2 (Homo sapiens); assay: Inhibition of wild type recombinant human histone lysine methyltransferase G9a (913 to 1193 residues) expressed in Escherichia coli Rosetta BL21 DE3 PlysS assessed as zinc ions ejection from Cys4-Zn finger at 2.5 to 100 uM measured up to 1 min by FluoZin-3 based fluorescence assay
[4] = biological target: T2, Histone-lysine N-methyltransferase EHMT1 (Homo sapiens) (UniProt Q9H9B1); assay: Inhibition of wild type recombinant human histone lysine methyltransferase GLP (951 to 1235 residues) expressed in Escherichia coli Rosetta BL21 DE3 PlysS assessed as zinc ions ejection from Cys4-Zn finger at >25 uM after 1 hr by circular dichroism analysis
T2 sequence (whole entry): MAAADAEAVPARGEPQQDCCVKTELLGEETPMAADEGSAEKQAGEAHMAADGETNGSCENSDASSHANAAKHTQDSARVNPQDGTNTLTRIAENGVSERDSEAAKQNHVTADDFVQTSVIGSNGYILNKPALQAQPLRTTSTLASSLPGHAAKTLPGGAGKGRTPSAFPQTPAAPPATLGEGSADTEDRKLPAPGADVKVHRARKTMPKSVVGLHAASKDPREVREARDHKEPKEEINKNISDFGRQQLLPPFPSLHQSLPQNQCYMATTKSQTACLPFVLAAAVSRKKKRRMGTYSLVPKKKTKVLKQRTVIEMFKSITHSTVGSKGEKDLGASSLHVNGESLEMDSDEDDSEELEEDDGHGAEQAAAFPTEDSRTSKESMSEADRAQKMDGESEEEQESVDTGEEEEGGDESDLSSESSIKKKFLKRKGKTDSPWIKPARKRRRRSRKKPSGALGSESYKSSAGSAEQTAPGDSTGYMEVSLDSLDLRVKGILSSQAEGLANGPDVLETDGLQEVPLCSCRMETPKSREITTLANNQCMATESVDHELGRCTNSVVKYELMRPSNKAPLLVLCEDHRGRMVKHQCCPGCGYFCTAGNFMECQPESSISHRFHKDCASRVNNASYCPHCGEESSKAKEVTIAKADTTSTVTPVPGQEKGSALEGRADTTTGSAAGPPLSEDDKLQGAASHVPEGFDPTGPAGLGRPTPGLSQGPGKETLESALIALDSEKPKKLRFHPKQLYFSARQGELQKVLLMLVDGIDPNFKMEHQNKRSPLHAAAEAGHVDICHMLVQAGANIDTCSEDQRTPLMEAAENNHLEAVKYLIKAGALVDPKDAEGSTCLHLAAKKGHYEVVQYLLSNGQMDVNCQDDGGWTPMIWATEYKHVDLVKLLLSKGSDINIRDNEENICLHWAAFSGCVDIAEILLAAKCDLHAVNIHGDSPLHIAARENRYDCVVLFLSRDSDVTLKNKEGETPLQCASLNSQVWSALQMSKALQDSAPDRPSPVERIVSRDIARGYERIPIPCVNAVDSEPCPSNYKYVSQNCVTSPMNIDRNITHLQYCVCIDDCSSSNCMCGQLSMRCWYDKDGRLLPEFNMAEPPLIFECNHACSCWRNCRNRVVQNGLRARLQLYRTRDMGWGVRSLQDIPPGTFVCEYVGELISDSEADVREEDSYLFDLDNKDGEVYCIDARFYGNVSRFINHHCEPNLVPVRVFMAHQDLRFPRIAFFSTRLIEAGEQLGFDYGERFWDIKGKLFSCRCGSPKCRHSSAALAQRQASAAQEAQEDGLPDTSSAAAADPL

[5] = biological target: T1, Histone-lysine N-methyltransferase EHMT2 (Homo sapiens); assay: Inhibition of wild type recombinant human histone lysine methyltransferase G9a (913 to 1193 residues) expressed in Escherichia coli Rosetta BL21 DE3 PlysS assessed as zinc ions ejection from 3 types of Cys9-type Zn fingers at >25 uM after 1 hr by circular dichroism analysis

SMILES	inhibition [1]	inhibition [2]	inhibition [3]	inhibition [4]	inhibition [5]
CCN(CC)C(=S)SSC(=S)N(CC)CC	Active	Active	–	–	–
O=c1c2ccccc2[se]n1-c1ccccc1 [EBSELEN]	–	–	Active	Active	Active
